How the values were obtained:
Experiment in all cases: relative viability (nuclei count vs DMSO), 5 days (fraction); higher = more cells survive
[1] = compound: COC1=CC=C(C=C1)CN2C=CC3=C2C=C(C=C3)C(=O)NO + Cc1nc(NC(=O)N2CCC[C@H]2C(N)=O)sc1-c1ccnc(C(C)(C)C(F)(F)F)c1 [Alpelisib] (partner 2 µM)
In short: (§1)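 Lung cancer cell lines were seeded in 1536-well plates and dosed by pin tool the next day, with either a single drug or a fixed anchor-drug dose combined with five library-drug doses (not always all listed) spaced in √10 steps. Five days later, one step fixed the cells and stained their nuclei (final 0.05% Triton X-100, 1% formaldehyde, 1 ug/ml Hoechst), and nuclei were counted on 4× images. Relative viability is the nuclei count in treated wells divided by the count in vehicle wells, and each value is the median of duplicate plates.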

[2] = compound: COC1=CC=C(C=C1)CN2C=CC3=C2C=C(C=C3)C(=O)NO + Cc1nc(Nc2ncc(C(=O)Nc3c(C)cccc3Cl)s2)cc(N2CCN(CCO)CC2)n1 [Dasatinib] (partner 0.075 µM)
In short: as §1

[3] = compound: C[C@]1(c2nc3c(C(N)=O)cccc3[nH]2)CCCN1 [Veliparib] + COc1cc2c(Oc3ccc(NC(=O)C4(C(=O)Nc5ccc(F)cc5)CC4)cc3F)ccnc2cc1OCCCN1CCOCC1 [Foretinib] (partner 0.25 µM)
In short: as §1

[4] = compound: C[C@]1(c2nc3c(C(N)=O)cccc3[nH]2)CCCN1 [Veliparib] + C[C@@H](Oc1cc(-c2cnn(C3CCNCC3)c2)cnc1N)c1c(Cl)ccc(F)c1Cl [Crizotinib] (partner 1 µM)
In short: as §1

Cell Line: NCI-H3122
- relative viability ([1]; first compound 0.08 µM): 0.613
- relative viability ([1]; first compound 0.253 µM): 0.88
- relative viability ([1]; first compound 0.8 µM): 0.828
- relative viability ([1]; first compound 2.53 µM): 0.87
- relative viability ([1]; first compound 8 µM): 0.701
- relative viability ([2]; first compound 0.08 µM): 0.864
- relative viability ([2]; first compound 0.253 µM): 0.869
- relative viability ([2]; first compound 0.8 µM): 0.86
- relative viability ([2]; first compound 2.53 µM): 0.741
- relative viability ([2]; first compound 8 µM): 0.527
- relative viability ([3]; first compound 0.02 µM): 1
- relative viability ([3]; first compound 0.06325 µM): 0.926
- relative viability ([3]; first compound 0.2 µM): 0.912
- relative viability ([3]; first compound 0.6325 µM): 0.943
- relative viability ([3]; first compound 2 µM): 0.966
- relative viability ([4]; first compound 0.02 µM): 0.247
- relative viability ([4]; first compound 0.06325 µM): 0.297
- relative viability ([4]; first compound 0.2 µM): 0.26
- relative viability ([4]; first compound 0.6325 µM): 0.268
- relative viability ([4]; first compound 2 µM): 0.304

Cell Line: PC-3 [JPC-3]
- relative viability ([1]; first compound 0.08 µM): 1.02
- relative viability ([1]; first compound 0.253 µM): 1.02
- relative viability ([1]; first compound 0.8 µM): 1.01
- relative viability ([1]; first compound 2.53 µM): 1.13
- relative viability ([1]; first compound 8 µM): 1.02
- relative viability ([2]; first compound 0.08 µM): 0.986
- relative viability ([2]; first compound 0.253 µM): 0.974
- relative viability ([2]; first compound 0.8 µM): 1.06
- relative viability ([2]; first compound 2.53 µM): 1.13
- relative viability ([2]; first compound 8 µM): 1.03
- relative viability ([3]; first compound 0.02 µM): 1.01
- relative viability ([3]; first compound 0.06325 µM): 1.06
- relative viability ([3]; first compound 0.2 µM): 0.968
- relative viability ([3]; first compound 0.6325 µM): 0.975
- relative viability ([3]; first compound 2 µM): 0.983
- relative viability ([4]; first compound 0.02 µM): 0.996
- relative viability ([4]; first compound 0.06325 µM): 0.961
- relative viability ([4]; first compound 0.2 µM): 0.914
- relative viability ([4]; first compound 0.6325 µM): 0.96
- relative viability ([4]; first compound 2 µM): 0.985

Cell Line: PC-14
- relative viability ([1]; first compound 0.08 µM): 0.883
- relative viability ([1]; first compound 0.253 µM): 0.856
- relative viability ([1]; first compound 0.8 µM): 0.96
- relative viability ([1]; first compound 2.53 µM): 1.02
- relative viability ([1]; first compound 8 µM): 0.985
- relative viability ([2]; first compound 0.08 µM): 0.236
- relative viability ([2]; first compound 0.253 µM): 0.248
- relative viability ([2]; first compound 0.8 µM): 0.292
- relative viability ([2]; first compound 2.53 µM): 0.26
- relative viability ([2]; first compound 8 µM): 0.178
- relative viability ([3]; first compound 0.02 µM): 0.965
- relative viability ([3]; first compound 0.06325 µM): 0.939
- relative viability ([3]; first compound 0.2 µM): 0.999
- relative viability ([3]; first compound 0.6325 µM): 0.922
- relative viability ([3]; first compound 2 µM): 0.923
- relative viability ([4]; first compound 0.02 µM): 0.896
- relative viability ([4]; first compound 0.06325 µM): 0.898
- relative viability ([4]; first compound 0.2 µM): 0.781
- relative viability ([4]; first compound 0.6325 µM): 0.766
- relative viability ([4]; first compound 2 µM): 0.766

Cell Line: RERF-LC-KJ
- relative viability ([1]; first compound 0.08 µM): 0.765
- relative viability ([1]; first compound 0.253 µM): 0.796
- relative viability ([1]; first compound 0.8 µM): 0.83
- relative viability ([1]; first compound 2.53 µM): 0.95
- relative viability ([1]; first compound 8 µM): 0.83
- relative viability ([2]; first compound 0.08 µM): 0.839
- relative viability ([2]; first compound 0.253 µM): 0.867
- relative viability ([2]; first compound 0.8 µM): 0.761
- relative viability ([2]; first compound 2.53 µM): 0.829
- relative viability ([2]; first compound 8 µM): 0.751
- relative viability ([3]; first compound 0.02 µM): 0.881
- relative viability ([3]; first compound 0.06325 µM): 0.807
- relative viability ([3]; first compound 0.2 µM): 0.879
- relative viability ([3]; first compound 0.6325 µM): 0.888
- relative viability ([3]; first compound 2 µM): 0.889
- relative viability ([4]; first compound 0.02 µM): 0.893
- relative viability ([4]; first compound 0.06325 µM): 0.751
- relative viability ([4]; first compound 0.2 µM): 0.847
- relative viability ([4]; first compound 0.6325 µM): 0.784
- relative viability ([4]; first compound 2 µM): 0.783

Cell Line: SK-LU-1
- relative viability ([1]; first compound 0.08 µM): 1.01
- relative viability ([1]; first compound 0.253 µM): 1.04
- relative viability ([1]; first compound 0.8 µM): 1.11
- relative viability ([1]; first compound 2.53 µM): 1.11
- relative viability ([1]; first compound 8 µM): 0.81
- relative viability ([2]; first compound 0.08 µM): 0.161
- relative viability ([2]; first compound 0.253 µM): 0.154
- relative viability ([2]; first compound 0.8 µM): 0.198
- relative viability ([2]; first compound 2.53 µM): 0.21
- relative viability ([2]; first compound 8 µM): 0.164
- relative viability ([3]; first compound 0.02 µM): 0.874
- relative viability ([3]; first compound 0.06325 µM): 0.756
- relative viability ([3]; first compound 0.2 µM): 0.899
- relative viability ([3]; first compound 0.6325 µM): 0.644
- relative viability ([3]; first compound 2 µM): 0.902
- relative viability ([4]; first compound 0.02 µM): 1.15
- relative viability ([4]; first compound 0.06325 µM): 0.924
- relative viability ([4]; first compound 0.2 µM): 1.07
- relative viability ([4]; first compound 0.6325 µM): 0.848
- relative viability ([4]; first compound 2 µM): 0.803

Cell Line: SK-MES-1
- relative viability ([1]; first compound 0.08 µM): 0.924
- relative viability ([1]; first compound 0.253 µM): 0.946
- relative viability ([1]; first compound 0.8 µM): 0.861
- relative viability ([1]; first compound 2.53 µM): 0.76
- relative viability ([1]; first compound 8 µM): 0.823
- relative viability ([2]; first compound 0.08 µM): 0.475
- relative viability ([2]; first compound 0.253 µM): 0.363
- relative viability ([2]; first compound 0.8 µM): 0.542
- relative viability ([2]; first compound 2.53 µM): 0.396
- relative viability ([2]; first compound 8 µM): 0.262
- relative viability ([3]; first compound 0.02 µM): 1
- relative viability ([3]; first compound 0.06325 µM): 0.799
- relative viability ([3]; first compound 0.2 µM): 0.995
- relative viability ([3]; first compound 0.6325 µM): 0.837
- relative viability ([3]; first compound 2 µM): 1.01
- relative viability ([4]; first compound 0.02 µM): 0.973
- relative viability ([4]; first compound 0.06325 µM): 0.901
- relative viability ([4]; first compound 0.2 µM): 0.951
- relative viability ([4]; first compound 0.6325 µM): 0.854
- relative viability ([4]; first compound 2 µM): 0.956

Cell Line: UMC-11
- relative viability ([1]; first compound 0.08 µM): 0.526
- relative viability ([1]; first compound 0.253 µM): 0.986
- relative viability ([1]; first compound 0.8 µM): 0.92
- relative viability ([1]; first compound 2.53 µM): 1.12
- relative viability ([1]; first compound 8 µM): 1.05
- relative viability ([2]; first compound 0.253 µM): 0.454
- relative viability ([2]; first compound 0.8 µM): 0.422
- relative viability ([2]; first compound 2.53 µM): 0.471
- relative viability ([2]; first compound 8 µM): 0.44
- relative viability ([3]; first compound 0.02 µM): 1.29
- relative viability ([3]; first compound 0.06325 µM): 0.959
- relative viability ([3]; first compound 0.2 µM): 0.998
- relative viability ([3]; first compound 0.6325 µM): 0.948
- relative viability ([3]; first compound 2 µM): 1.02
- relative viability ([4]; first compound 0.02 µM): 0.549
- relative viability ([4]; first compound 0.06325 µM): 0.654
- relative viability ([4]; first compound 0.2 µM): 0.595
- relative viability ([4]; first compound 0.6325 µM): 0.547
- relative viability ([4]; first compound 2 µM): 0.577
